For data set [1] the following is noted: human gut metagenome, 24 h, 2 µM.
The conditions of data set [2]: human gut metagenome, 24 h, 2 µM. The source holds these as a separate data set.
The nature of data set [3]: The drug is tested on WLS-073 corresponding to human gut metagenome with ENA study accession number: PRJEB37062 and ENA sample accession number: ERS12561749 for biotransformation under anaerobic condition. The drug concentrations were measured over 9 timepoints collected between 0 and 24 hours of incubation by liquid-chromatography-coupled mass spectrometry (LC–MS). As to conditions: 2 µM.

Data set [4] is described as follows: The drug is tested on Z-002 corresponding to rabbit gut metagenome with ENA study accession number: PRJEB37062 and ENA sample accession number: ERS12561802 for biotransformation under anaerobic condition. The drug concentrations were measured over 9 timepoints collected between 0 and 24 hours of incubation by liquid-chromatography-coupled mass spectrometry (LC–MS). As to conditions: 2 µM.

Data set [5] in a line: The drug is tested on Z-003 corresponding to pig gut metagenome with ENA study accession number: PRJEB37062 and ENA sample accession number: ERS12561803 for biotransformation under anaerobic condition. The drug concentrations were measured over 9 timepoints collected between 0 and 24 hours of incubation by liquid-chromatography-coupled mass spectrometry (LC–MS). As to conditions: 2 µM.

A short description of data set [6]: The drug is tested on WLS-038 corresponding to human gut metagenome with ENA study accession number: PRJEB37062 and ENA sample accession number: ERS12561745 for biotransformation under anaerobic condition. The drug concentrations were measured over 9 timepoints collected between 0 and 24 hours of incubation by liquid-chromatography-coupled mass spectrometry (LC–MS). As to conditions: 2 µM.

Data set [7] is described as follows: The drug is tested on WLS-370 corresponding to human gut metagenome with ENA study accession number: PRJEB37062 and ENA sample accession number: ERS12561793 for biotransformation under anaerobic condition. The drug concentrations were measured over 9 timepoints collected between 0 and 24 hours of incubation by liquid-chromatography-coupled mass spectrometry (LC–MS). As to conditions: 2 µM.

The conditions of data set [8]: human gut metagenome, 24 h, 2 µM. This is another data set of the same source.
Data set [9] in a line: The drug is tested on Z-009 corresponding to pig gut metagenome with ENA study accession number: PRJEB37062 and ENA sample accession number: ERS12561809 for biotransformation under anaerobic condition. The drug concentrations were measured over 9 timepoints collected between 0 and 24 hours of incubation by liquid-chromatography-coupled mass spectrometry (LC–MS). As to conditions: 2 µM.

The structures appear in SMILES notation.
Also: call rule not given here.

With `CN1CCc2c(c3ccccc3n2Cc2ccccc2)C1.CN1CCc2c(c3ccccc3n2Cc2ccccc2)C1.O=S(=O)(O)c1cccc2c(S(=O)(=O)O)cccc12`, the “Bacterial Biotransformation” value was “Compound NOT metabolized” in data set [1]; “Compound metabolized” in [2]; “Compound NOT metabolized” in data set [3]; “Compound NOT metabolized” in data set [4]; “Compound NOT metabolized” in data set [5]; “Compound NOT metabolized” in data set [6]. For the same molecule, the “Bacterial Biotransformation” value in data set [7] is listed as “Compound metabolized”; in data set [8] it was “Compound NOT metabolized”; in data set [9], “Compound NOT metabolized”.
Turning to `COc1cc2nc(N(C)CCCNC(=O)C3CCCO3)nc(N)c2cc1OC` (stereo unspecified) [ALFUZOSIN], the “Bacterial Biotransformation” value is recorded as “Compound metabolized” in data set [1]; “Compound metabolized” in data set [2]; “Compound metabolized” in [3]; “Compound metabolized” in data set [4]; “Compound metabolized” in data set [5]; “Compound NOT metabolized” in data set [6]. Further, the “Bacterial Biotransformation” value in data set [7], in [8] and in [9] was “Compound metabolized” throughout.
Regarding `NC12CC3CC(CC(C3)C1)C2` [AMANTADINE], the “Bacterial Biotransformation” value in data set [1], in data set [2], in [3], in [4], in data set [5] and in [6] was “Compound NOT metabolized” each time. Moreover, the “Bacterial Biotransformation” value in data set [7], in [8] and in data set [9] was “Compound NOT metabolized” each time.
Regarding `CC(C)(C#N)c1cc(Cn2cncn2)cc(C(C)(C)C#N)c1` [ANASTROZOLE], the “Bacterial Biotransformation” value in [1] is on record as “Compound NOT metabolized”; in data set [2], “Compound metabolized”; in data set [3], “Compound NOT metabolized”; in [4] it was “Compound metabolized”; in data set [5], “Compound metabolized”; in data set [6], “Compound NOT metabolized”. Besides, the “Bacterial Biotransformation” value is “Compound metabolized” in data set [7], “Compound NOT metabolized” in data set [8] and “Compound metabolized” in data set [9].
As for `O=P(O)(O)O.c1ccc(CN(CC2=NCCN2)c2ccccc2)cc1` [ANTAZOLINE PHOSPHATE], the “Bacterial Biotransformation” value is recorded as “Compound NOT metabolized” in data set [1]; “Compound NOT metabolized” in data set [2]; “Compound NOT metabolized” in data set [3]; “Compound metabolized” in [4]; “Compound metabolized” in [5]; “Compound NOT metabolized” in data set [6]. The entries for the “Bacterial Biotransformation” value in data set [7], in data set [8] and in data set [9] were “Compound metabolized”, “Compound metabolized” and “Compound NOT metabolized”, respectively.
For `CN1CCC(=C2c3ccccc3CCc3cccnc32)CC1.O=C(O)/C=C\C(=O)O.O=C(O)/C=C\C(=O)O` [AZATADINE MALEATE], the “Bacterial Biotransformation” value in data set [1], in [2], in [3], in [4], in data set [5] and in data set [6] was “Compound NOT metabolized” each time. For the same molecule, the “Bacterial Biotransformation” value in data set [7], in data set [8] and in data set [9] was “Compound NOT metabolized” each time.
For `CC(=O)OCC(=O)[C@@]1(O)[C@@H](C)C[C@H]2[C@@H]3CCC4=CC(=O)C=C[C@]4(C)[C@@]3(F)[C@@H](O)C[C@@]21C` [BETAMETHASONE ACETATE], the “Bacterial Biotransformation” value is “Compound metabolized” in data set [1]; “Compound metabolized” in data set [2]; “Compound NOT metabolized” in data set [3]; “Compound metabolized” in data set [4]; “Compound metabolized” in data set [5]; “Compound metabolized” in data set [6]. Besides, the “Bacterial Biotransformation” value in data set [7], in [8] and in [9] was “Compound metabolized” throughout.
In the case of `CC(C)NCC(O)COc1ccc(CCOCC2CC2)cc1` (stereo unspecified) [BETAXOLOL], the “Bacterial Biotransformation” value in data set [1] is given as “Compound metabolized”; in data set [2], “Compound NOT metabolized”; in data set [3], “Compound NOT metabolized”; in data set [4], “Compound metabolized”; in data set [5] it was “Compound NOT metabolized”; in data set [6], “Compound NOT metabolized”. Besides, the “Bacterial Biotransformation” value in [7], in data set [8] and in data set [9] was “Compound NOT metabolized” in each case.
Consider `CC(C)(Oc1ccc(CCNC(=O)c2ccc(Cl)cc2)cc1)C(=O)O` [BEZAFIBRATE], for which the “Bacterial Biotransformation” value in data set [1], in data set [2], in data set [3], in data set [4], in [5] and in data set [6] was “Compound metabolized” in each case. Further, the “Bacterial Biotransformation” value in [7], in [8] and in data set [9] was “Compound metabolized” each time.
Take `CCCC1O[C@@H]2C[C@H]3[C@@H]4CCC5=CC(=O)C=C[C@]5(C)[C@H]4[C@@H](O)C[C@]3(C)[C@]2(C(=O)CO)O1` (stereo partly specified) [BUDESONIDE]: the “Bacterial Biotransformation” value in data set [1] is “Compound metabolized”; in [2], “Compound metabolized”; in data set [3], “Compound NOT metabolized”; in data set [4], “Compound metabolized”; in data set [5], “Compound metabolized”; in data set [6] it was “Compound metabolized”. Moreover, the “Bacterial Biotransformation” value in data set [7], in data set [8] and in data set [9] was “Compound metabolized” in each case.
Take `O=C(NCc1ccccc1)OCCO` [BURAMATE]: the “Bacterial Biotransformation” value in data set [1], in data set [2], in data set [3], in [4], in data set [5] and in data set [6] was “Compound NOT metabolized” throughout. For the same molecule, the “Bacterial Biotransformation” value in data set [7], in [8] and in data set [9] was “Compound NOT metabolized” throughout.
Take `CCN(CC)CCOCCOC(=O)C1(c2ccccc2)CCCC1.O=C(O)CC(O)(CC(=O)O)C(=O)O` [CARBETAPENTANE CITRATE]: the “Bacterial Biotransformation” value in data set [1], in data set [2], in [3], in data set [4], in data set [5] and in data set [6] was “Compound metabolized” throughout. Also, the “Bacterial Biotransformation” value in data set [7], in data set [8] and in [9] was “Compound metabolized” throughout.
Regarding `O=C(O)COCCN1CCN(C(c2ccccc2)c2ccc(Cl)cc2)CC1` (stereo unspecified) [CETIRIZINE], the “Bacterial Biotransformation” value in data set [1], in data set [2], in data set [3], in data set [4], in data set [5] and in data set [6] was “Compound metabolized” each time. The “Bacterial Biotransformation” value in data set [7], in [8] and in data set [9] was “Compound metabolized” throughout.
Take `CN/C(=N/CCSCc1nc[nH]c1C)NC#N` [CIMETIDINE]: the “Bacterial Biotransformation” value in data set [1], in [2], in data set [3], in data set [4], in [5] and in [6] was “Compound NOT metabolized” throughout. Moreover, the “Bacterial Biotransformation” value in [7] is listed as “Compound NOT metabolized”; in [8], “Compound metabolized”; in data set [9], “Compound NOT metabolized”.

(Values after ChEMBL document CHEMBL5724914, “Linking interpersonal differences in gut microbiota composition and drug biotransformation activity” (2024).)
